Test results published in ChEMBL document CHEMBL1152102, “6-Phenyl-6-alkylamido-5,6-dihydro-2H-pyran-2-ones: novel HIV protease inhibitors” (Bioorg Med Chem Lett, 1996).
pIC50: −log10 of the molar value.

Target: Human immunodeficiency virus type 1 protease (Human immunodeficiency virus 1, UniProt Q72874)
Test: In vitro inhibitory activity against purified HIV-1 protease at a pH of 4.7 and a final enzyme concentration of 0.45-1.1 nM

Row | SMILES | pIC50
1 | CC(C)c1ccccc1SC1=C(O)OC(CCCC(=O)N2CCN(C(=O)OC(C)(C)C)CC2)(c2ccccc2)CC1=O (stereo not given) | 6.91
2 | CC(C)c1ccccc1SC1=C(O)OC(CCCC(=O)Nc2ccccc2)(c2ccccc2)CC1=O (stereo not given) | 6.37
3 | CC(C)c1ccccc1SC1=C(O)OC(CCCC(=O)N(C)CCc2ccccc2)(c2ccccc2)CC1=O (stereo not given) | 6.67
4 | CC(C)c1ccccc1SC1=C(O)OC(CCCCC(=O)Nc2ccccc2)(c2ccccc2)CC1=O (stereo not given) | 7.04
5 | CC(C)c1ccccc1SC1=C(O)OC(CCCC(=O)N(C)Cc2ccccc2)(c2ccccc2)CC1=O (stereo not given) | 6.17
6 | CC(C)c1ccccc1SC1=C(O)OC(CCCC(=O)NCc2ccccc2)(c2ccccc2)CC1=O (stereo not given) | 7.09
7 | CC(C)c1ccccc1SC1=C(O)OC(CCCC(=O)NCCc2ccccc2)(c2ccccc2)CC1=O (stereo not given) | 6.84
8 | CC(C)c1ccccc1SC1=C(O)OC(CCCCC(=O)NCc2ccccc2)(c2ccccc2)CC1=O (stereo not given) | 7.59
9 | CC(C)c1ccccc1SC1=C(O)OC(CCC(=O)N2CCN(C(=O)OC(C)(C)C)CC2)(c2ccccc2)CC1=O (stereo not given) | 5.90
10 | CC(C)c1ccccc1SC1=C(O)OC(CCCC(=O)N(C)c2ccccc2)(c2ccccc2)CC1=O (stereo not given) | 6.20
11 | CC(C)c1ccccc1SC1=C(O)OC(CCCCC(=O)NCCc2ccccc2)(c2ccccc2)CC1=O (stereo not given) | 7.15

Further lines, results first:

Row | pIC50 | SMILES
12 | 5.96 | CC(C)c1ccccc1SC1=C(O)OC(CCC(=O)N2CCSCC2)(c2ccccc2)CC1=O (stereo not given)
13 | 6.71 | CC(C)c1ccccc1SC1=C(O)OC(CCCCC(=O)N2CCOCC2)(c2ccccc2)CC1=O (stereo not given)
14 | 8.74 | CC(C)c1ccccc1SC1=C(O)OC(CCCCC(=O)O)(c2ccccc2)CC1=O (stereo not given)
15 | 5.61 | CC(C)c1ccccc1SC1=C(O)OC(CCC(=O)N2CCOCC2)(c2ccccc2)CC1=O (stereo not given)
16 | 6.23 | CC(C)c1ccccc1SC1=C(O)OC(CCCCC(=O)N2CCSCC2)(c2ccccc2)CC1=O (stereo not given)
17 | 6.25 | CC(C)c1ccccc1SC1=C(O)OC(CCCC(=O)N2CCNCC2)(c2ccccc2)CC1=O (stereo not given)
18 | 7.06 | CCCCCC1(c2ccccc2)CC(=O)C(Sc2ccccc2C(C)C)=C(O)O1 (stereo not given)
19 | 5.96 | CC(C)c1ccccc1SC1=C(O)OC(CCC(=O)N2CCNCC2)(c2ccccc2)CC1=O (stereo not given)
20 | 6.63 | CC(C)c1ccccc1SC1=C(O)OC(CCCCC(=O)N2CCNCC2)(c2ccccc2)CC1=O (stereo not given)
21 | 7.00 | CC(C)c1ccccc1SC1=C(O)OC(CCCC(N)=O)(c2ccccc2)CC1=O (stereo not given)
22 | 6.55 | CC(C)c1ccccc1SC1=C(O)OC(CCCC(=O)N2CCSCC2)(c2ccccc2)CC1=O (stereo not given)
23 | 7.04 | CC(C)c1ccccc1SC1=C(O)OC(CCCCC(N)=O)(c2ccccc2)CC1=O (stereo not given)
24 | 6.90 | CC(C)c1ccccc1SC1=C(O)OC(CCCCC(=O)N2CCN(C(=O)OC(C)(C)C)CC2)(c2ccccc2)CC1=O (stereo not given)
25 | 6.73 | CC(C)c1ccccc1SC1=C(O)OC(CCCC(=O)N2CCOCC2)(c2ccccc2)CC1=O (stereo not given)
